Experiment [1] deals with HLA-A*24:02 transgenic mouse. The experiment in a line: In vivo adjuvant activity, CTL induction with vaccine e, IFNγ ELISPOT (Test 16). To be noted: 0.4 nmol per body added to vaccine e versus no compound; twice. On the procedure:
The in vivo adjuvant activity of the compound of Example 2 was evaluated in the following procedure. To a vaccine prepared by mixing Peptide SEQ ID No. 18 prepared in Reference example 18 with Montanide ISA 51 VG (hereinafter, referred to as “vaccine e”) was added the compound prepared in Example 2 to prepare a vaccine. The vaccine was administered to a HLA-A*24:02 transgenic mouse, and the adjuvant activity of the vaccine was evaluated by the method of testing antigen-specific CTL induction. The TYAGCLSQIF in Peptide SEQ ID No. 18 corresponds to an antigen peptide derived from an HLA-A*24:02-restricted Or7c1 protein.
The character for inducing CTLs specific to the antigen peptide (SEQ ID No. 18) by vaccine e was evaluated by measuring whether IFNγ can be produced upon stimulation of splenocytes from the mouse with the peptide. In addition, the character for exerting in vivo adjuvant activity by the compound in Example 2 was evaluated by comparing the number of CTLs induced by vaccine e and the number of CTLs induced by the vaccine prepared by adding the compound prepared in Example 2 to vaccine e, and checking presence or absence of the increase on the number.
Specifically, Peptide of SEQ ID No. 18 was dissolved in DMSO, and then diluted with water for injection to concentrations of 3 mg/mL. […]

The test system of experiment [2] is HLA-A*02:01/HLA-DRB1*01:01 transgenic mouse. The experiment in a line: In vivo adjuvant activity, helper T-cell induction with vaccine d, IFNγ ELISPOT (Test 10). As to conditions: 3.25 ng per body added to vaccine d versus no compound; twice, one week interval. The procedure: The in vivo adjuvant activity of the compound prepared in Example 3 was evaluated in the following procedure. To a cocktail vaccine comprising Compound SEQ ID No. 1 prepared in Reference example 1 and Peptide SEQ ID No. 4 prepared in Reference example 4 with a preliminarily-emulsified composition (hereinafter, referred to as “vaccine d”) was added the compound prepared in Example 3 to prepare a vaccine. The vaccine was administered to a HLA-A*02:01/HLA-DRB1*01:01 transgenic mouse (C57BL/6CrHLA-A2.1DR1), and the adjuvant activity of the vaccine was evaluated by the method of testing antigen-specific helper T-cell induction. Peptide SEQ ID No. 4 is a helper peptide derived from HLA-DRB1*01:01-restricted WT1 protein.
Specifically, Peptide SEQ ID No. 1 and Peptide SEQ ID No. 4 were dissolved in DMSO, and then diluted with water for injection to concentrations of Peptide SEQ ID No. 1 of 0.9 mg/mL and Peptide SEQ ID No. 4 of 1.8 mg/mL. The diluted peptide solution was mixed and emulsified with an equal volume of a preliminarily-emulsified composition to prepare vaccine d. Vaccine d was injected to mice intradermally at the tail base area in an amount for administering 180 μg of Peptide SEQ ID No. 1 per body and 360 μg of Peptide SEQ ID No. 4 per body. […] Then, after removal of the supernatant from the wells, stained spots on the ELISPOT plate were counted.

Another experiment deals with mouse splenocyte. The experiment in a line: Activation of immune cells, mouse splenocyte cytokine/chemokine production (Test 5). As to conditions: 200 nmol/L, one day, compared with only DMSO. The format is cell-based. On the procedure: Splenocyte was derived from the spleen of a HLA-A*02:01 transgenic mouse, and cryopreserved. Cryopreserved mouse splenocyte was reconstituted, suspended in RPMI 1640 medium with 10% FBS, and seeded on a U-bottom 96 well plate at 4×10^5 cells/well. The compound prepared in Example 3 was added in the presence of 0.1% (v/v) DMSO to the wells at a final concentration of 200 nmol/L. The plate was incubated at 37° C. under an atmosphere of 5% CO2. One day after the incubation, the culture supernatant was collected. The concentration of cytokine and chemokine (GM-CSF, IFNγ, IL-6, IP-10, MCP-1, MIP-1α, MIP-1β, Rantes, and TNFα) which were included in each culture supernatant was measured with Milliplex Mouse Cytokine/Chemokine Magnetic Bead Panel kit and Luminex system in accordance with the manufacturer's protocol.
The results are shown in FIG. 3-A to FIG. 3-I. The white bar indicates the mean number of the concentration of cytokine and chemokine in the culture supernatant from three wells to which only DMSO was added, and the black bar indicates the mean number of the concentration of cytokine and chemokine in the culture supernatant from three wells to which the compound prepared in Example 3 was added. The compound prepared in Example 3 made the yield of cytokine and chemokine higher, compared with the case of only DMSO.

On to `CCCCOc1nc(N)c2[nH]c(=O)n(Cc3ccc(CN(C)CCOCCOCCOCCOCCO)nc3)c2n1` [Example 2, 6-amino-2-butoxy-9-{[6-(16-hydroxy-2-methyl-5,8,11,14-tetraoxa-2-azahexadecan-1-yl)pyridin-3-yl]methyl}-7,9-dihydro-8H-purin-8-one-trifluoroacetate], for which the “CTL counts responsive to Peptide SEQ ID No. 18” value in experiment [1] is listed as “more”.
In the case of `CCCCOc1nc(N)c2[nH]c(=O)n(Cc3ccc(CN(C)CCOCCOCCOCCOCCO)cc3)c2n1` [Example 3, 6-amino-2-butoxy-9-{[4-(16-hydroxy-2-methyl-5,8,11,14-tetraoxa-2-azahexadecan-1-yl)phenyl]methyl}-7,9-dihydro-8H-purin-8-one], the “T-cell counts responsive to Peptide SEQ ID No. 4 (helper T-cell)” value in experiment [2] is on record as “more”. Also, the “yield of cytokine and chemokine (GM-CSF, IFNγ, IL-6, IP-10, MCP-1, MIP-1α, MIP-1β, Rantes, TNFα)” value in the experiment on mouse splenocyte is recorded as “higher”.

The values above are taken from patent US20220241409A1, “WATER SOLUBLE ADJUVANT AND COMPOSITION CONTAINING SAME” (Sumitomo Dainippon Pharma Co., Ltd., priority 2019, published 2022).
